Like-named read-outs stand apart in the source and are kept apart here.
Assay: PK of compound of Formula (Ia) after single subcutaneous dose of solution formulations in beagle dogs
Assay type: in vivo
Conditions: male, beagle, dog, plasma, sc; for AUC(0-t): 6 mg/kg, mean ± SD, SC 6 mg/kg, solution V, 300 mg/mL
Description: Formulations containing the compound of Formula (Ia), or a pharmaceutically acceptable salt thereof, were prepared as solutions and optionally administered subcutaneously or intramuscularly to rats, rabbits, and/or dogs.
(§1) A solution of about 400 mg/mL of the compound of Formula (Ia) having 17.00 w/w % water, 36.40 w/w % PEG 300, 35.20 w/w % of a sodium salt of a compound of Formula (Ia), 5.00 w/w % ethanol, and 6.40 w/w % poloxamer 188 was prepared. The solution was administered subcutaneously to male beagle dogs at a dose level of about 12 mg/kg and male Wistar Han rats at a dose level of about 50 mg/kg. The pharmacokinetic profiles were determined, and the results for dogs are summarized in Table and Table, while the results for rats are summarized in Table and Table below.
as §1, with “500” for “400”, “14.06” for “17.00”, “30.12” for “36.40”
A solution of about 300 mg/mL of the compound of Formula (Ia) having 23.33 w/w % water, 48.99 w/w % PEG 300, 26.47 w/w % of a sodium salt of a compound of Formula (Ia), and 1.21 w/w % poloxamer 188 was prepared. The solution was administered subcutaneously to male beagle dogs at a dose level of about 6 mg/kg and male Wistar Han rats at a dose level of about 50 mg/kg. The pharmacokinetic profiles were determined, and the results for dogs are summarized in Table and Table, while the results for rats are summarized in Table and Table below.
as §1, with “18.80” for “17.00”, “40.25” for “36.40”, “34.38” for “35.20”, “1.57” for “6.40”
as §1, with “500” for “400”, “16.29” for “17.00”, “34.88” for “36.40”, “41.92” for “35.20”, “1.91” for “6.40”
as §1, with “20.90” for “17.00”, “44.72” for “36.40”, “and 34.38” for “35.20”, “(Ia)” for “(Ia), 5.00 w/w % ethanol, and 6.40 w/w % poloxamer 188”
A solution of about 400 mg/mL of the compound of Formula (Ia) having 19.90 w/w % water, 42.59 w/w % PEG 300, 34.38 w/w % of a sodium salt of a compound of Formula (Ia), and 3.13 w/w % poloxamer 188 was prepared. The solution was administered subcutaneously to male beagle dogs at a dose level of about 12 mg/kg and male Wistar Han rats at a dose level of about 50 mg/kg. […]

[1] = 12 mg/kg, mean, n = 3 dogs, SC 12 mg/kg, solution T, 400 mg/mL
[2] = 12 mg/kg, mean, n = 3 dogs, SC 12 mg/kg, solution U, 500 mg/mL
[3] = 12 mg/kg, individual dogs, SC 12 mg/kg, solution T, 400 mg/mL
[4] = 12 mg/kg, individual dogs, SC 12 mg/kg, solution U, 500 mg/mL
[5] = 12 mg/kg, beagle dogs, SC 12 mg/kg, 400 mg/mL solution AA (6.25% poloxamer 188), Mean n = 3
[6] = 12 mg/kg, beagle dogs, SC 12 mg/kg, 400 mg/mL solution AA (6.25% poloxamer 188), animals #1-#3
[7] = 12 mg/kg, beagle dogs, SC 12 mg/kg, 400 mg/mL solution W (5.00% ethanol, 1.57% poloxamer 188), Mean n = 3
[8] = 12 mg/kg, beagle dogs, SC 12 mg/kg, 400 mg/mL solution W (5.00% ethanol, 1.57% poloxamer 188), animals #1-#3

With `CC(C)(C#Cc1ccc(-c2ccc(Cl)c3c(NS(C)(=O)=O)nn(CC(F)(F)F)c23)c([C@H](Cc2cc(F)cc(F)c2)NC(=O)Cn2nc(C(F)(F)F)c3c2C(F)(F)[C@@H]2C[C@H]32)n1)S(C)(=O)=O` [compound of Formula (Ia)] the AUC(0-t) (n = 3 dogs, read-out: AUC0-2016 h) was 107 ± 12 µM·h, the AUC(0-t) (n = 3 dogs, read-out: AUC0-2253 h) was 109 ± 12 µM·h and the AUC(0-t) (n = 3 dogs, read-out: AUC0-2688 h) was 110 ± 12 µM·h. It also gave an AUC(0-t) (n = 3 dogs, read-out: AUC0-3024 h) of 111 ± 13 µM·h, an AUC(0-t) (n = 3 dogs, read-out: AUC0-4032 h) of 112 ± 13 µM·h and an AUC(0-t) (n = 3 dogs, read-out: AUC0-4368 h) of 112 ± 13 µM·h. The concentration at 1 h [1] was 6.07 nM, the concentration at 1 h [2] was 5.59 nM and the concentration at 3 h [1] was 18.1 nM. It also gave a concentration at 3 h [2] of 22 nM, a concentration at 8 h [3] of 83.9 nM and a concentration at 8 h [1] of 72.9 nM. For the same compound, the concentration at 8 h [2] was 61.2 nM, the concentration at 24 h [3] was 233 nM and the concentration at 24 h [1] was 224 nM. It also gave a concentration at 24 h [2] of 134 nM, a concentration at 48 h [4] of 72.8 nM and a concentration at 48 h [1] of 241 nM. For the same compound, the concentration at 48 h [2] was 87.2 nM, the concentration at 72 h [4] was 49.4 nM and the concentration at 72 h [1] was 223 nM. The concentration at 72 h [2] was 58.6 nM, the concentration at 96 h [4] was 49 nM and the concentration at 96 h [1] was 232 nM. For the same compound, the concentration at 96 h [2] was 52.4 nM, the concentration at 168 h [1] was 221 nM and the concentration at 168 h [2] was 97.5 nM. The concentration at 336 h [3] was 179 nM, the concentration at 336 h [4] was 114 nM and the concentration at 336 h [1] was 261 nM. For the same compound, the concentration at 336 h [2] was 152 nM, the concentration at 504 h [3] was 286 nM and the concentration at 504 h [4] was 151 nM. It also gave a concentration at 504 h [1] of 238 nM, a concentration at 504 h [2] of 149 nM and a concentration at 672 h [3] of 150 nM. The concentration at 672 h [1] was 116 nM, the concentration at 672 h [2] was 81.9 nM and the concentration at 840 h [1] was 90.8 nM. It also gave a concentration at 840 h [2] of 72.6 nM, a concentration at 1008 h [3] of 75.5 nM and a concentration at 1008 h [1] of 73.6 nM. The concentration at 1008 h [2] was 58.3 nM, the concentration at 1344 h [3] was 42.5 nM and the concentration at 1344 h [4] was 43.3 nM. For the same compound, the concentration at 1344 h [1] was 36.2 nM, the concentration at 1344 h [2] was 34.8 nM and the concentration at 1680 h [3] was 19.9 nM. It also gave a concentration at 1680 h [1] of 23.9 nM, a concentration at 1680 h [2] of 21.3 nM and a concentration at 2016 h [1] of 11.8 nM. For the same compound, the concentration at 2016 h [2] was 10.3 nM, the concentration at 2352 h [3] was 4.8 nM and the concentration at 2352 h [1] was 6 nM. For the same compound, the concentration at 2352 h [2] was 7.5 nM, the concentration at 1 h [5] was 4 nM and the concentration at 3 h [5] was 13.8 nM. It also gave a concentration at 8 h [5] of 42.3 nM, a concentration at 24 h [5] of 134 nM and a concentration at 24 h [6] of 118 nM. For the same compound, the concentration at 48 h [5] was 148 nM, the concentration at 48 h [6] was 102 nM and the concentration at 72 h [5] was 135 nM. For the same compound, the concentration at 96 h [5] was 180 nM, the concentration at 96 h [6] was 140 nM and the concentration at 168 h [5] was 101 nM. The concentration at 168 h [6] was 106 nM, the concentration at 336 h [5] was 185 nM and the concentration at 336 h [6] was 204 nM. It also gave a concentration at 504 h [5] of 182 nM, a concentration at 672 h [5] of 183 nM and a concentration at 672 h [6] of 157 nM. It also gave a concentration at 840 h [5] of 109 nM, a concentration at 840 h [6] of 103 nM and a concentration at 1008 h [5] of 85.4 nM. For the same compound, the concentration at 1008 h [6] was 77.6 nM, the concentration at 1334 h [5] was 47.6 nM and the concentration at 1334 h [6] was 35.8 nM. For the same compound, the concentration at 1680 h [5] was 28 nM, the concentration at 1680 h [6] was 24 nM and the concentration at 2016 h [5] was 15.4 nM. The concentration at 2016 h [6] was 10.2 nM, the concentration at 2352 h [5] was 10.5 nM and the concentration at 2688 h (12 mg/kg, beagle dogs, SC 12 mg/kg, 400 mg/mL solution AA (6.25% poloxamer 188), 2688 h, Mean n = 3) was 5.47 nM. It also gave a concentration at 3024 h (12 mg/kg, beagle dogs, SC 12 mg/kg, 400 mg/mL solution AA (6.25% poloxamer 188), 3024 h, Mean n = 3) of 3.54 nM, a concentration at 3360 h (12 mg/kg, beagle dogs, SC 12 mg/kg, 400 mg/mL solution AA (6.25% poloxamer 188), 3360 h, Mean n = 3) of 1.97 nM and a concentration at 3696 h (12 mg/kg, beagle dogs, SC 12 mg/kg, 400 mg/mL solution AA (6.25% poloxamer 188), Mean) of 1.56 nM. It also gave a concentration at 3696 h [6] of 1.63 nM, a concentration at 3 h [7] of 3.84 nM and a concentration at 3 h [8] of 3.45 nM. It also gave a concentration at 8 h [7] of 18 nM, a concentration at 24 h [7] of 37.8 nM and a concentration at 24 h [8] of 35.4 nM. The concentration at 48 h [7] was 48.2 nM and the concentration at 72 h [7] was 48.6 nM.
